Reference: patent EP4692080A1, “PREPARATION METHOD FOR SALT FORM AND CRYSTAL FORM OF 2,6-PIPERIDINEDIONE COMPOUND AND USE THEREOF” (priority 2023, dated 2024)
Where a name gives a salt, the structure may show the parent alone.

Key:
[1] = target: T1, IRAK4 (Homo sapiens, UniProt Q9NWZ3); assay: Target protein degradation in K562 IRAK4-HiBiT cells (Nano-Glo HiBiT assay); type: cell-based; settings: K562, read-out: Maximum Degradation Rate
T1 construct: expressed in transfected cells; host or cells: K562 IRAK4-HiBiT cells
T1 sequence (Q9NWZ3 1-460): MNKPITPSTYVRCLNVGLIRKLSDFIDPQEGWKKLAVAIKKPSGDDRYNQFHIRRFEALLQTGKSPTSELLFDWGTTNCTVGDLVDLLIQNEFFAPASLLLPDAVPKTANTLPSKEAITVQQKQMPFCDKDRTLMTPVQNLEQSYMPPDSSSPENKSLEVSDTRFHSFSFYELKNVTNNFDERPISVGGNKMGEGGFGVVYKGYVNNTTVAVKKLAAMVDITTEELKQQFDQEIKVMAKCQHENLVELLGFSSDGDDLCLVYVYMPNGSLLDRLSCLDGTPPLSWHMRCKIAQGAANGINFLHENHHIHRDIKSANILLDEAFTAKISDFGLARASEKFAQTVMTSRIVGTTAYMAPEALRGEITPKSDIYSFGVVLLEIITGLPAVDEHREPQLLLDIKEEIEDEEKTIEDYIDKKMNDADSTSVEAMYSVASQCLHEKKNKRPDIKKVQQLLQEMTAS
Protocol: Objective: In this experiment, the degradation effect of the compound of formula (I) on the target protein IRAK4 in K562 IRAK4-HiBiT cells was detected.
• Cells: K562 IRAK4-HiBiT cells • Culture medium: RPMI 1640 + 10% fetal bovine serum + 2 mM glutamine + 1 mM sodium pyruvate + penicillin/streptomycin • Positive control: 1000 nM; negative control: 0.1% DMSO Table 7. Reagents and consumables […]
• (1) The cell culture medium was discarded, and the cells were washed once with DPBS, digested with trypsin, and counted to prepare a cell suspension of […]. • (2) 25 µL/well of cell suspension was added to the assay plate containing the test compound using Multidrop Combi at medium speed. • (3) The assay plate containing cells was returned to an incubator with 5% CO2 at 37°C and incubated for 16 to 18 hours.
• (1) 25 µL/well of assay reagent (NanoGlo lysis buffer + substrate + LgBit protein) was added to the assay plate using Multidrop Combi at high speed, and the plate was shaken for 10 minutes. • (2) The plate was centrifuged at 2000 rpm for 1 minute to remove air bubbles. • (3) The plate was read on Envision using US Luminescence detection method. […]

[2] = target: T2, IKZF1 (Homo sapiens, UniProt Q13422+Q96SW2); assay: In cell western analysis of IKZF1 protein expression level in MM.1S cells; type: cell-based; settings: MM1.S, read-out: Maximum Degradation Rate Dmax
T2 construct: expression levels of IKZF1 and IKZF3 proteins in MM.1S cells; host or cells: MM.1S cells
Protocol: (§1) Objective: The experiment was conducted to evaluate the degradation effects of the compound of formula (I) on IKZF1 and IKZF3 proteins in MM.1S cells by detecting their impact on the expression levels of IKZF1 and IKZF3 proteins in MM.1S cells.
(§2) • Cell line: MM.1S cell (obtained from ATCC; Cat. No. CRL-2974) • Negative control: 0.1% DMSO Table 10. Reagents and consumables
(§3) • 1) MM.1S cells in the logarithmic growth phase were seeded into a 96-well plate at 1.2×10^5 cells per well and cultured overnight. • 2) On the second day, drug treatment was initiated with a starting concentration of 300 nM, followed by a 3-fold dilution in triplicate wells, with 10 concentration gradients (containing DMSO), and incubated for 24 hours in a culture incubator. • 3) The mixture was centrifuged, and the cell supernatant was carefully removed. […]
(§4) GraphPad Prism 6 software was utilized to fit the curve with the inhibition rate data, and the DC50 value was calculated.

[3] = target: T3, IKZF3 (Homo sapiens, UniProt Q96SW2+Q9UKT9); assay: In cell western analysis of IKZF3 protein expression level in MM.1S cells; type: cell-based; settings: MM1.S, read-out: Maximum Degradation Rate Dmax
T3 construct: expression levels of IKZF1 and IKZF3 proteins in MM.1S cells; host or cells: MM.1S cells
Protocol: as §1, §2, §3, §4

[4] = Pharmacokinetic evaluation in mice; type: in vivo, C57BL/6 or C57 male mice
Excerpt: C57BL/6 or C57 male mice were selected as the test animals for this study. The LC/MS/MS method was employed to quantitatively determine the plasma drug concentrations at various time points after intravenous injection or intragastric administration of the test compound, aiming to evaluate the pharmacokinetic characteristics of the compound of the present disclosure in mice.
C57BL/6 or C57 mice (male, 20 to 30g, 7 to 10 weeks old, Beijing Vital River).
A clear solution of the test compound was injected intravenously into the tail vein of C57BL/6 mice (fasted overnight) (vehicle: 10% DMSO/10% solutol/80% H2O), or administered intragastrically to C57 mice (fed). […] The mixture was thoroughly vortexed and mixed, and centrifuged at 6000 g for 3 minutes at 2 to 8°C. […] The mixture was thoroughly vortexed and mixed, and centrifuged at 6000 g for 3 minutes at 2 to 8°C. Plasma drug concentrations were determined by the LC-MS/MS method, and relevant pharmacokinetic parameters were calculated using Phoenix WinNonlin 8.2.0 pharmacokinetic software with non-compartmental model linear-log trapezoidal method.

[5] = Pharmacokinetic evaluation in beagle dogs; type: in vivo, Male beagle dogs; settings: fed
Protocol: Male beagle dogs were selected as the experimental animals in this study.
Beagle dogs (male, 7 to 10 kg, Beijing Mars Biotechnology Co., Ltd.).
A clear solution of the test compound was slowly injected intravenously into beagle dogs (fed) via the peripheral vein (vehicle: 5% DMSO/10% Solutol/85% H2O), or administered intragastrically to beagle dogs (fed). For intravenous administration, 0.5 mL of blood was collected from the peripheral vein at 0.083, 0.25, 0.5, 1, 2, 4, 6, 8, and 24 h after administration, placed in EDTA-2K anticoagulant tubes, and centrifuged at 3200 g for 10 minutes at 2 to 8°C to separate the supernatant. For intragastric administration, 0.5 mL of blood was collected from the peripheral vein at 0.083, 0.25, 0.5, 1, 2, 4, 6, 8, and 24 h after administration, placed in EDTA-2K anticoagulant tubes, and centrifuged at 3200 g for 10 minutes at 2 to 8°C to separate the supernatant. Plasma drug concentrations were determined by the LC-MS/MS method, and relevant pharmacokinetic parameters were calculated using Phoenix WinNonlin 6.3 pharmacokinetic software with non-compartmental model linear-log trapezoidal method.

[6] = Intragastric Administration (10 mg/kg) (fed)
[7] = Intragastric Administration (5 mg/kg)

T2 sequence (Q13422 whole entry): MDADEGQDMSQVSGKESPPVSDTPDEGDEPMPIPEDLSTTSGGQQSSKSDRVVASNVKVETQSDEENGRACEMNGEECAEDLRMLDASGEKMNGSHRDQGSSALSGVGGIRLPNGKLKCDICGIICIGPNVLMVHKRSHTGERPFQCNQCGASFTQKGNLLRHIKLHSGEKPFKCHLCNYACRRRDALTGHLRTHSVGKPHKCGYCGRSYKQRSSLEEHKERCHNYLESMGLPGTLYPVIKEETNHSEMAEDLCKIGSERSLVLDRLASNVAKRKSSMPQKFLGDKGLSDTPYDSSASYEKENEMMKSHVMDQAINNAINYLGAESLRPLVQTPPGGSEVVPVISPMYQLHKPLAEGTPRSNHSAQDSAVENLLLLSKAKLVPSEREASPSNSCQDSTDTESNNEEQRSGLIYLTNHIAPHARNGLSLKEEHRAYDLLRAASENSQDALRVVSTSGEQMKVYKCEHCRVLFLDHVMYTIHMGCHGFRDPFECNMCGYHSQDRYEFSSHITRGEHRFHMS
T2 sequence (Q96SW2 whole entry): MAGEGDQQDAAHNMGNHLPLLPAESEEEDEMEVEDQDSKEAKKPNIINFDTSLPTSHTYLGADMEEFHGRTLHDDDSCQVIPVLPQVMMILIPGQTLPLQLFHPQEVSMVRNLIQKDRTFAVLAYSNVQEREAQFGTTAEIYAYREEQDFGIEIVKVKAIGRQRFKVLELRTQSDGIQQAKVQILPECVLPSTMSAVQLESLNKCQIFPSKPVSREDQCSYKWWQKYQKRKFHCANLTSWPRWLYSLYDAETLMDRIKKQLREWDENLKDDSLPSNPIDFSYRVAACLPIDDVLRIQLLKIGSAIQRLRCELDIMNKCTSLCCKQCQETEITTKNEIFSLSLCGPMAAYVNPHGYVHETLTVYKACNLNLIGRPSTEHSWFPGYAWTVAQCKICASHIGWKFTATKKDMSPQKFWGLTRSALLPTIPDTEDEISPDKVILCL
T2 sequence (Q16531 whole entry partner): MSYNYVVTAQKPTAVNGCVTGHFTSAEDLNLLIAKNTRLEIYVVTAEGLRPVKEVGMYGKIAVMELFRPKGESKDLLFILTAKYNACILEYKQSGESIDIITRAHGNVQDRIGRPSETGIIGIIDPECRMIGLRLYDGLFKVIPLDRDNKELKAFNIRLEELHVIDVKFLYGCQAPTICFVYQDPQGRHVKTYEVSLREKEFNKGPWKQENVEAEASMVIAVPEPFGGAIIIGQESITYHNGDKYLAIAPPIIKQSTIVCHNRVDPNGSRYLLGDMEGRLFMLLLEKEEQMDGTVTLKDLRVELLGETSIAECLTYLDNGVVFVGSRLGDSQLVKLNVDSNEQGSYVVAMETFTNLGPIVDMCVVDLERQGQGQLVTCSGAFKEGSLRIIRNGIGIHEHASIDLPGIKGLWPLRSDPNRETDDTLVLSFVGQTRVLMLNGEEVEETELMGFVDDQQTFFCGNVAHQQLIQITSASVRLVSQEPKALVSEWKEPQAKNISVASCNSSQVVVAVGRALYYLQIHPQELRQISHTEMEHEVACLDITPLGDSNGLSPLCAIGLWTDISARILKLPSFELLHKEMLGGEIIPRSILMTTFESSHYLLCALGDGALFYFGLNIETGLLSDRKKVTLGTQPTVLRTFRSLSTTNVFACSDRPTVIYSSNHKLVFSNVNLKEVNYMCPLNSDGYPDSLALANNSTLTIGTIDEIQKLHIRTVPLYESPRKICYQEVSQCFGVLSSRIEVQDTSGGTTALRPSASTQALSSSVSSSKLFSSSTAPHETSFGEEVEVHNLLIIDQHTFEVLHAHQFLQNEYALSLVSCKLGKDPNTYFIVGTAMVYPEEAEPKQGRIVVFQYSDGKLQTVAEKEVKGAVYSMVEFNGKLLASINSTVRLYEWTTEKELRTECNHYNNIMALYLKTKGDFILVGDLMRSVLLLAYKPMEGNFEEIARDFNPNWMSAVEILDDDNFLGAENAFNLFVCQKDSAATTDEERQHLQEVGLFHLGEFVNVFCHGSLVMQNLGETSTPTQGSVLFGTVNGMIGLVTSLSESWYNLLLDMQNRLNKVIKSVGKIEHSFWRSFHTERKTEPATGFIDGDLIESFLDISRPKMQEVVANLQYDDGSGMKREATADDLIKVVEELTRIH
T3 sequence (Q9UKT9 whole entry): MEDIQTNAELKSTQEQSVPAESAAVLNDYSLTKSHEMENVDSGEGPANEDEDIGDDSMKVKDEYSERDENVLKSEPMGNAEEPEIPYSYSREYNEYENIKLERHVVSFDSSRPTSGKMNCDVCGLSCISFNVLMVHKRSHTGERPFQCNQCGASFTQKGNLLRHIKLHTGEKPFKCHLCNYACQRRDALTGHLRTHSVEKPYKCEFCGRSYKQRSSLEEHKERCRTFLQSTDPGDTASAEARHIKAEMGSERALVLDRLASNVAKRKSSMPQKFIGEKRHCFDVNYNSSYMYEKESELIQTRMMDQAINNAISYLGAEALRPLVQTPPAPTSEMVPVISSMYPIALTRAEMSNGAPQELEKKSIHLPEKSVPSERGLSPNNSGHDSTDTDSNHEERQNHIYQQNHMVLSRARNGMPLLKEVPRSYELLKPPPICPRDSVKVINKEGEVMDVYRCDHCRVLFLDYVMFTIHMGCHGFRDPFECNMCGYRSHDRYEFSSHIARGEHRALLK
T3 sequence (Q96SW2 whole entry): as the sequence (Q96SW2 whole entry) above
T3 sequence (Q16531 whole entry partner): as the sequence (Q16531 whole entry partner) above

In the case of `O=C1CCC(c2noc3ccc4c(NC(=O)CN5CCN(C[C@H]6CC[C@H](n7cc(NC(=O)c8coc(-c9ccnc(NCC%10CC%10)c9)n8)c(C(F)F)n7)CC6)CC5)cccc4c23)C(=O)N1` (stereo partly drawn) [Hydrochloride of Compound of Formula (I)], the Dmax [1] was 108%, the Dmax [2] was 72.3% and the Dmax [3] was 73.5%. The “Area Under the Drug-Time Curve (0-inf)” value [4, 6] was 4.47 µM·h, the “Peak Concentration” value [4, 6] was 0.54 µM and the “Area Under the Drug-Time Curve (0-inf)” value ([4]; Intravenous Injection (2 mg/kg) (fasted)) was 5.40 µM·h. For the same compound, the “Area Under the Drug-Time Curve (0-inf)” value [5, 7] was 3.20 µM·h, the “Peak Concentration” value [5, 7] was 0.41 µM and the “Area Under the Drug-Time Curve (0-inf)” value ([5]; Intravenous Injection (0.5 mg/kg)) was 0.44 µM·h.
